From patent publication US20260027073A1, “USE OF SMALL-MOLECULE COMPOUND HAVING NAPHTHYLAMINE STRUCTURE” (HANGZHOU PHECDAMED CO., LTD., priority 2023, published 2026)
Several values for one entry are separate records, joined by “and”; a condition that tells them apart may be missing. Equal entries are not always repeated.

How the values were obtained:
[1] = system: rats with 5/6 nephrectomy; assay: 5/6 nephrectomy-induced renal injury; assay type: in vivo, SD rats
Description: 5/6 nephrectomy directly leads to a large reduction of renal units, high workload of residual renal units, and combined hypertension (or non-hypertension), and these features are similar to the symptoms of patients with clinical nephrectomy, CKD hypertensive syndrome, and solitary kidney, and like, and the pathological changes are dominated by glomerulosclerosis and tubulo-fibrosis, which is a good model for the study of CKD. The model was prepared as follows, 230-250 g male SD rats were anesthetized with isoflurane gas, and an incision of about 3 cm at 1 cm left and below of the cribriform ridge corner was made, fully exposing the left kidney, and after exposing the kidney in the sham group, the muscle and skin were sutured with sutures, during which there was no ligation and no resection. In the model group, about ⅓ of the cortex of the upper and lower left kidney was cut with ophthalmic surgical scissors, and was pressed with the absorbable gelatin sponge to stop bleeding for 3 min, then the hemostatic clip was released, and whether there is obvious bleeding was observed and the residual kidney was reset, and the muscle and skin were sutured with sutures. After 1 week, the second surgery was performed, and after fully exposing the right kidney, the renal pedicle and the ureter were ligated, and the right kidney was resected. Similarly, in the sham group, after exposing the kidney, the muscle and skin were sutured with sutures, during which there was no ligation and no resection. Penicillin (80 kU/rat) was routinely injected for three days after surgery. […] In the experiment, 10 d after the end of the right nephrectomy surgery, the serum creatinine level of rats increased, which was statistically significant compared to the sham group, and began to be administered in groups.
The experiments were conducted in sham group (exposing both kidneys without resection), Control group (model group, given vehicle treatment by oral gavage), and 15 mg/kg I-1 group (15 mg/kg by oral gavage), respectively, during the experimental period, a drug was administered once a day for a total of 27 days, and the 24-hour urine of the rats in each group was collected by metabolism cages on the 28th day to measure the volume of urine, urine creatinine, and urine protein. At the same time, blood was collected from the heart, and the blood was centrifuged at 12000 g for 10 min at 4° C. after standing at room temperature for 45 min, the supernatant (serum) was taken to measure the creatinine level in the serum, and finally the creatinine clearance was calculated. After euthanasia of rats at endpoint of the test, the kidneys were dissected and removed, in which four kidneys of rats were fixed with 4% paraformaldehyde for 48 h, paraffin-embedded, sectioned, and HE stained as described above.

[2] = system: rats of type I diabetes nephropathy model; assay: Kidney injury induced by type 1 diabetic nephropathy (STZ); assay type: in vivo, SD rats
Description: 150-170 g SD male rats were fasted but not deprived of water for 12 h before surgery, and a longitudinal incision was made at the intersection of the lower edge of the right rib arch, which was about 1 cm long. Then the three layers of skin, mucous membrane, and muscle were separated layer by layer to expose the perinephric fat, and the perinephric fat was clamped by hemostatic forceps and lifted upward to expose the right kidney, and the right kidney pedicle was ligated and the right kidney was resected, and after no hemorrhage was checked, the tissues were sutured layer by layer. One week after surgery, 1% streptozotocin (STZ) 50 mg/kg was injected intraperitoneally in a volume of […]. Rats in the sham group only had the abdominal cavity opened, the right renal adipose capsule was peeled off, and the right kidney was not resected; the abdominal cavity was closed, the incision was sutured and an equal volume of citrate solution was injected into the tail vein one week later.
Random blood glucose was measured 72 h after STZ injection, and blood glucose ≥16.65 mmol/L was considered as successful diabetes modeling. The successful modeling rats were selected to continue to be fed with normal chow and free water. […] The experiment was divided into sham group (sham group, without STZ modeling and given vehicle by oral gavage), Control group (model control group, STZ modeling and given vehicle treatment by oral gavage), and 15 mg/kg I-1 group (STZ modeling and given 15 mg/kg I-1 by oral gavage), and the dosage of the drug was administered once a day in the volume of 10 ml/kg for 27 days. […] At the end point of the experiment, the rats were euthanized, the kidneys were removed after dissection, and four kidneys were taken to be fixed with 4% paraformaldehyde for 48 h, paraffin-embedded, sectioned and HE stained, and the specific staining procedure was as described above.

[3] = system: Natural Aging POF model (NA-POF); assay: Natural aging ovarian insufficiency (NA-POF); assay type: in vivo, C57BL/6J mice; settings: for body weight / ovarian coefficient / ovarian weight: FIG. 71; for serum E2 levels: FIG. 73
Description: The Natural Aging POF model (NA-POF) simulates conditions of progressive ovarian degeneration. Female C57BL/6J mice of 9-10 months of age were purchased and raised to 12 months old, and then the mice were randomly divided into three groups, namely, the control group (Control, 0.5% CMC-Na by oral gavage, n=8), the TJ01-013-treated group (TJ01-013, 30 mg/kg TJ01-013 by oral gavage, n=8), the I-14-1 treatment group (I-14-1, 30 mg/kg I-14-1 by oral gavage, n=8), and were administered daily for 30 days. At the endpoint of the experiment, body weight, ovarian weight, ovarian organ coefficient, serum hormone E2 and FSH levels in mice were measured. The body weight and bilateral ovarian wet weight of each group of mice were weighed with an electronic balance and an analytical balance respectively, and the ovarian organ coefficient of each group of mice was calculated according to the body weight of the mice (g) and the wet weight (mg) of the bilateral ovaries. […] After the experiment reached the end point, orbital blood collection was carried out, and the blood was centrifuged at 12000 g for 10 min after standing still at room temperature for 45 min, and the supernatant (serum) was taken, and the levels of E2 and FSH in serum were detected by ELISA.

[4] = Degree of lesion +++ (severe lesions), 15 mg/kg
[5] = Degree of lesion ± (slight lesions), 15 mg/kg

Which results are given for O=C(O)C[S+]([O-])c1cc(NS(=O)(=O)c2ccc(Br)cc2)c2ccccc2c1O (stereo not drawn) [I-1]?
24 h urine protein content ([1]; 15 mg/kg oral gavage, 27 days, FIG. 6): significantly reduced; blood creatinine level ([1]; 15 mg/kg oral gavage, 27 days, P<0.001, FIG. 5): significantly reduced; body weight ([1]; 15 mg/kg oral gavage, 27 days, vs model group, P<0.05, FIG. 4): significant increase; degree of lesions in the renal tissues (HE staining) ([1]; 15 mg/kg, 27 days, FIG. 8): improved the degree of lesions; creatinine clearance rate ([1]; 15 mg/kg, 27 days, vs model control, FIG. 7): improvement trend; Renal lesions (number of kidneys, n = 4) [1, 4]: 0; Renal lesions (number of kidneys, n = 4) [1, 5]: 0; Renal lesions (number of kidneys, n = 4) ([1]; Degree of lesion − (no lesions seen), 15 mg/kg): 0; body weight ([2]; 15 mg/kg oral gavage, 27 days, FIG. 14): trend of increasing body weight; blood glucose level ([2]; 15 mg/kg, 27 days, FIG. 16): no significant effect; 24-h urine protein level ([2]; 15 mg/kg, 27 days, FIG. 17): decrease in the 24-h urine protein level of rats, but there was no significant difference; serum creatinine level ([2]; 15 mg/kg, 27 days, P<0.5 [sic], FIG. 15): significantly decreased; degree of renal pathology (HE staining) ([2]; 15 mg/kg, 27 days, vs model group, FIG. 18): significant reduction; Renal lesion (number of kidneys, n = 4) ([2]; Degree of lesion + (mild lesions), 15 mg/kg): 3/4 and 3; Renal lesion (number of kidneys, n = 4) ([2]; Degree of lesion ++ (moderate lesions), 15 mg/kg): 0; Renal lesion (number of kidneys, n = 4) [2, 4]: 1/4 and 1; Renal lesion (number of kidneys, n = 4) [2, 5]: 0; Renal lesion (number of kidneys, n = 4) ([2]; Degree of lesion − (no lesions), 15 mg/kg): 0; body weight ([3]; 30 mg/kg daily 30 days): no significant change; ovarian coefficient ([3]; 30 mg/kg daily 30 days): significantly elevated; ovarian weight ([3]; 30 mg/kg daily 30 days): significantly elevated; serum FSH level ([3]; 30 mg/kg daily 30 days, FIG. 72): decreased significantly; serum E2 levels ([3]; 30 mg/kg daily 30 days): increased significantly; improvement of ovarian function, TJ0113 compared with I-14-1 ([3]; both 30 mg/kg): more effective

For O=C(O)C[S+]([O-])c1cc(NS(=O)(=O)c2ccc(C(F)(F)F)cc2)c2ccccc2c1O (stereo not drawn) [I-14-1], which body weight ([3]; 30 mg/kg daily 30 days) is on record?
The body weight was “no significant change”.

And the ovarian coefficient ([3]; 30 mg/kg daily 30 days)?
The ovarian coefficient was “rising trend”.

What about the ovarian weight ([3]; 30 mg/kg daily 30 days) of the same compound?
Its ovarian weight is “significantly elevated”.

What about the “serum E2 levels” value ([3]; 30 mg/kg daily 30 days) of the same compound?
The value was “increased significantly”.

With O=C(O)CSc1cc(NS(=O)(=O)c2ccc(Br)cc2)c2ccccc2c1O [UMI-77, reference compound] as the compound, how does the “protection against 5/6 nephrectomy-induced renal injury compared with I-1 group” value ([1]; UMI-77 vs I-1) read?
The value was “less protective”.

And the “protection against kidney injury in type 1 diabetes compared with I-1 group” value ([2]; UMI-77 vs I-1)?
The value was “less protective”.
